Results as given in patent publication EP1157985A1 (G.D. SEARLE & CO., priority 1996, dated 1997).
Structures can show the parent of a compound that is named as a salt. Where two headings read alike, the source gives them in different places.

Legend:
[1] = target: T1, Human vitronectin receptor (αvβ3) (Homo sapiens, UniProt P05106+P06756); test: Vitronectin adhesion assay (solid phase receptor assay, competition with biotinylated vitronectin); type: binding
T1 construct: Human vitronectin receptor (αvβ3) was purified from human placenta; from tissue; host or cells: human placenta

[2] = target: T2, Human fibrinogen receptor (αIIbβ3) (Homo sapiens, UniProt P05106+P08514); test: Purified IIb/IIIa receptor assay (solid phase receptor assay, competition with biotinylated vitronectin); type: binding; settings: purified receptor from outdated platelets; 1 nM biotinylated vitronectin; highest concentration tested 1.0 x 10^-4 M
T2 construct: Human fibrinogen receptor (αIIbβ3) was purified from outdated platelets; from tissue; host or cells: outdated (human) platelets
Summary of the method: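 Platelet-derived αIIbβ3 coated at 1.0 µg/mL overnight at 4 °C in TBS with 1 mM Ca, Mg, Mn, pH 7.4, BSA-blocked; compounds competed with 1 nM biotinylated vitronectin (final; top compound 1.0 × 10^-4 M) for 2 h at room temperature. Bound ligand detected via HRP anti-biotin, A450; normalized to maximum binding, four-parameter fit.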

[3] = purified receptor from human placenta; 1 nM biotinylated vitronectin; highest concentration tested 1.0 x 10^-4 M; read-out: AvB3 IC50
[4] = read-out: AvB3 IC50; purified receptor from human placenta; 1 nM biotinylated vitronectin; highest concentration tested 1.0 x 10^-4 M

SMILES	IC50 [1, 3] [nM]	IC50 [2] [nM]	IC50 [1, 4] [nM]
CN(C)c1cc(NC(=O)c2cccc(NC(=N)N)c2)ccc1CCC(=O)O [Example 117, 4-[[[3-[(aminoiminomethyl)amino]phenyl]carbonyl]-amino]-2-(dimethylamino)benzenepropanoic acid, bis(trifluoroacetate) salt]	129	452	
COc1cc(NC(=O)c2cccc(NC3=NCCCN3)c2)ccc1OCC(=O)O [Example 119, [2-methoxy-4-[[[3-[(1,4,5,6-tetrahydropyrimidin-2-yl]-amino]phenyl]carbonyl]amino]phenoxy]acetic acid, trifluoroacetate salt]	0.4	772	
N=C(N)Nc1cccc(C(=O)Nc2ccc(CC(C(=O)O)C(=O)O)cc2)c1 [Example 120, [[4-[[[3-[(aminoiminomethyl)amino]phenyl]carbonyl]-amino]phenyl]methyl]-1,3-propanoic acid, trifluoroacetic salt]	14	384	
Cc1cc(C)c(S(=O)(=O)NC(Cc2ccc(NC(=O)c3cccc(NC(=N)N)c3)cc2)C(=O)O)c(C)c1 (stereo not shown) [Example 121, trifluoroacetate salt]		2	1
N=C(N)Nc1cccc(C(=O)Nc2ccc(CC(NS(=O)(=O)c3cc(Cl)cc(Cl)c3)C(=O)O)cc2)c1 (stereo not shown) [Example 122, [4-[[[3-[(aminoiminomethyl)amino]phenyl]carbonyl]-amino]-N-[(3,5-dichlorophenyl)sulfonyl]phenyl-alanine, trifluoroacetate salt]	7	50	
N=C(N)Nc1cccc(C(=O)Nc2ccc(CC(NC(=O)N3CCOCC3)C(=O)O)cc2)c1 (stereo not shown) [Example 125, 4-[[[3-[(aminoiminomethyl)amino]phenyl]carbonyl]-amino]-N-[(4-morpholinyl)carbonyl]phenylalanine, bis(trifluoroacetate) salt, monohydrate]	7	260	
N=C(N)Nc1cccc(C(=O)Nc2ccc(CC(NC(=O)N3CCCCC3)C(=O)O)cc2)c1 (stereo not shown) [Example 126, 4-[[[3-[(aminoiminomethyl)amino]phenyl]carbonyl]-amino]-N-[(1-pipridinyl)carbonyl]phenyl-alanine, trifluoroacetate salt]	2	36	
CC(C)OC(=O)NC(Cc1ccc(NC(=O)c2cccc(NC(=N)N)c2)c(Cl)c1)C(=O)O (stereo not shown) [Example 127, trifluoroacetate salt]		22	0.6
